In PubChem BioAssay (NCI):
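Test compounds were applied to cells in 96-well plates for 48 hours at 5 doses. GI50 = concentration required for 50% inhibition of growth. The concentration for full growth arrest is given as TGI.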

Tests used:
Experiment in all cases: NCI tumour cell line growth inhibition, 48 h
ACHN renal = system: ACHN renal
COLO 205 colon = system: COLO 205 colon
HCC-2998 colon = system: HCC-2998 colon
NCI-H226 lung = system: NCI-H226 lung
OVCAR-4 ovarian = system: OVCAR-4 ovarian
SF-539 CNS = system: SF-539 CNS
SW-620 colon = system: SW-620 colon
SK-MEL-2 melanoma = system: SK-MEL-2 melanoma

Compound | TGI (ACHN renal) [µM] | TGI (COLO 205 colon) [µM] | TGI (HCC-2998 colon) [µM] | TGI (NCI-H226 lung) [µM] | TGI (OVCAR-4 ovarian) [µM] | TGI (SF-539 CNS) [µM] | TGI (SW-620 colon) [µM] | TGI (SK-MEL-2 melanoma) [µM] | GI50 (ACHN renal) [µM] | GI50 (COLO 205 colon) [µM] | GI50 (HCC-2998 colon) [µM] | GI50 (NCI-H226 lung) [µM] | GI50 (OVCAR-4 ovarian) [µM] | GI50 (SF-539 CNS) [µM] | GI50 (SK-MEL-2 melanoma) [µM] | GI50 (SW-620 colon) [µM]
COc1ccc2c3c1OC1C(OC)(OC)CC4(C=C2)CN(C)CCC314 (centres undefined) | > 100 | > 100 | > 100 | > 100 | > 100 | > 100 | > 100 | – | – | – | – | – | – | – | – | –
N#Cc1c(-c2ccc([N+](=O)[O-])cc2)cc(-c2ccc(Nc3ccnc4cc(Cl)ccc34)cc2)nc1N | > 72.6 | > 66 | 43.2 | > 95.2 | 15.2 | 55.4 | > 100 | 43.5 | – | – | – | – | – | – | – | –
Cc1ccc(C(=O)N/N=C2/C(=O)c3c4ccccc4cc4cccc2c34)cc1 | 39.3 | > 100 | > 100 | > 100 | > 100 | > 92.9 | > 100 | > 100 | – | – | – | – | – | – | – | –
O=P1(Cc2ccccc2)c2ccccc2-c2ccccc21 | 52.1 | 17 | 16.7 | 31.2 | 87.9 | 39.5 | 35 | 7.49 | – | – | – | – | – | – | – | –
C=CCN(CCN(CC=C)S(=O)(=O)c1ccc(C)cc1)S(=O)(=O)c1ccc(C)cc1 | > 100 | > 100 | > 100 | > 100 | > 100 | – | > 100 | – | – | – | – | – | – | – | – | –
CC(C)=C[C@@H]1O[C@H](O)[C@@H]([C@H]2CC[C@@]3(C)[C@@H]4CC[C@H]5C(C)(C)C(=O)CC[C@@]56C[C@@]46CC[C@]23C)[C@@H]1O | 32 | 43.3 | 33.3 | 24.6 | 35 | 28 | 29.7 | 42.2 | – | – | – | – | – | – | – | –
CCOC1CCN(C(=O)c2ccccc2)O1 (centres undefined) | > 10 | > 10 | > 10 | > 10 | > 10 | > 10 | > 10 | > 10 | – | – | – | – | – | – | – | –
Cc1ccc(/S(Cc2ccccc2)=N\S(=O)(=O)c2ccc(C)cc2)cc1 (centres undefined) | > 100 | > 100 | – | > 100 | – | > 100 | > 100 | – | – | – | – | – | – | – | – | –
O=C(NC1(C(=O)O)CCCC1)c1ccccc1 | > 100 | > 100 | > 100 | > 100 | – | > 100 | > 100 | > 100 | – | – | – | – | – | – | – | –
COc1cccc2cc(C(=O)NC34CC5CC(CC(C5)C3)C4)c(=N)oc12 | > 100 | > 100 | > 100 | > 100 | > 100 | > 56.1 | > 100 | > 100 | – | – | – | – | – | – | – | –
COc1ccccc1C1C(C#N)=C(N)Oc2cc(O)ccc21 (centres undefined) | 84 | 36.6 | 35.5 | 35 | 85.9 | 66 | > 100 | > 100 | 22.3 | 15.8 | 11.7 | 13.7 | 25.3 | 24.7 | 23 | 29.1
C[n+]1ccccc1/C1=c2\cc/c([nH]2)=C(\c2cccc[n+]2C)C2=N/C(=C(/c3cccc[n+]3C)C3C=CC(N3)/C(c3cccc[n+]3C)=C3/C=CC1=N3)C=C2 | > 100 | > 100 | > 100 | > 100 | > 100 | > 100 | > 100 | > 100 | – | – | – | – | – | – | – | –
CC(=O)NC1C(OCc2ccccc2)OC(CO)C(O)C1OCC(=O)N[C@@H](C)C(=O)N[C@H](CCC(=O)NCCNc1ccc([N+](=O)[O-])c2[nH]c3ccccc3c(=O)c12)C(N)=O (some centres undefined) | 61.4 | > 100 | 36 | 32.4 | 67.9 | > 100 | > 100 | – | – | – | – | – | – | – | – | –
CCOC(=O)/C=C(/C(=O)OCC)n1ccc(=O)n(Cc2cnnn2CCCCOC(C)=O)c1=O | > 100 | 46 | > 100 | > 100 | > 100 | > 100 | 43.2 | > 100 | – | – | – | – | – | – | – | –
C[C@H]1O[C@@H](C(C)(C)C)OC(=O)[C@@H]1C(OC(=O)c1ccccc1)c1cccc2ccccc12 (some centres undefined) | > 100 | > 100 | > 100 | > 100 | > 100 | > 100 | > 100 | > 100 | – | – | – | – | – | – | – | –
Cc1cc(N(CCC#N)CCC#N)ccc1/C(N=Nc1ccc([N+](=O)[O-])cc1)=N\NC(=O)c1ccccc1 | > 100 | > 100 | > 100 | > 100 | > 100 | 92.9 | – | > 100 | – | – | – | – | – | – | – | –
CCOC(=O)c1nc2cc(C(F)(F)F)ccc2nc1Oc1ccc(F)cc1 | > 100 | > 100 | > 100 | > 100 | > 100 | > 100 | > 100 | > 100 | – | – | – | – | – | – | – | –
CN(C)c1ccc(/C=C(\NC(=O)c2ccccc2)C(=O)NC(Cc2c[nH]c3ccccc23)C(=O)O)cc1 (centres undefined) | > 100 | > 100 | > 100 | > 100 | > 100 | > 100 | > 100 | > 100 | – | – | – | – | – | – | – | –
[N-]=[N+]=Nc1ccc2c(c1)Sc1ccccc1N2CCCCN1CCN(C(=O)CCNC(=O)Cc2ccc(C(=O)c3ccccc3)cc2)CC1 | > 60.5 | 8.92 | 6.08 | > 100 | > 25.6 | 17.2 | > 39.3 | 8.97 | – | – | – | – | – | – | – | –
COc1ccc(/C=C/C(=O)Oc2ccccc2OC)cc1 | > 59.4 | 21.2 | 43.3 | > 100 | > 60.7 | > 100 | > 100 | > 95.3 | – | – | – | – | – | – | – | –
O=C1/C(=C/c2ccccc2)CCCc2ccccc21 | 47 | 33.3 | – | 36.6 | 32 | 32.1 | 32.9 | 29.9 | – | – | – | – | – | – | – | –
NS(=O)(=O)c1nnc(NS(=O)(=O)c2ccc([N+](=O)[O-])cc2)s1 | > 100 | > 100 | > 100 | > 100 | > 100 | > 100 | > 100 | > 100 | – | – | – | – | – | – | – | –
